Measurements from ChEMBL document CHEMBL4680274, “Modulating microRNA Processing: Enoxacin, the Progenitor of a New Class of Drugs” (J Med Chem, 2020).

Experiments:
[1] = system: Zika virus; experiment: Antiviral activity against ZIKV infected in human neural progenitor cells incubated with cells for 24 hrs prior to viral infection followed by replacement of fresh medium containing compound and measured at 48 hrs post infection by RT-PCR method; conditions: Neural Progenitor Cell
[2] = system: HCT-116; experiment: Anticancer activity against human HCT116 cells incubated for 5 days by MTT assay; assay type: functional, cell-based; conditions: HCT-116, 120 h
[3] = system: DU-145; experiment: Growth inhibition of human DU145 cells incubated for 72 hrs by MTT assay; assay type: functional, cell-based; conditions: DU-145, 72 h
[4] = system: LNCaP; experiment: Growth inhibition of human LNCaP cells incubated for 72 hrs by MTT assay; assay type: functional, cell-based
[5] = Cytotoxicity against human neural progenitor cell by CellTiter-Glo Luminescent Cell Viability Assay; assay type: tissue-based; conditions: neural progenitor cells

## CCn1cc(C(=O)O)c(=O)c2cc(F)c(N3CCNCC3)nc21 [ENOXACIN]
[1]
  IC50: 52 µM
[2]
  EC50: 124 µM
[3]
  EC50: 141 µM
[4]
  EC50: 105 µM
[5]
  CC50: 176 µM
